How the values were obtained:
[1] = Pharmacokinetic evaluation in mice (IV and oral); conditions: female, CD1, mouse, in vivo
Experimental: CD1 female mice were used as test animals, and the compounds were administered orally or intravenously (oral dose of 10 mg/kg; intravenous dose of 2 mg/kg).
Experiment protocol: Three mice per group for oral administration, and three mice per group for intravenous administration. Oral: Plasma samples were collected before administration (0 h) and at 0.25, 0.5, 1, 2, 4, 8, and 24 hours post-administration; Intravenous: Plasma samples were collected before administration (0 h) and at 0.083, 0.25, 0.5, 1, 2, 4, 8, and 24 hours post-administration. The plasma drug concentrations in mice after oral and intravenous administration were determined using LC/MS/MS, and the collected data were analyzed using AB Sciex QTRAP 6500 software.

HCT116-MTAPwt = assay: 2D anti-proliferation assay (CTG luminescence), wild-type HCT116 cells; type: cell-based; conditions: Homo sapiens, HCT-116, 7-10 days incubation
Experimental: By testing the activity of both of them, the inhibitory effect and selectivity of the molecules of the present invention for PRMT5 at the cellular level were shown.
(§1) HCT116 wild-type and MTAP-deficient cells were cultured in MCCOYS 5A medium containing 10% FBS and 1% penicillin-streptomycin and incubated in a 37°C, 5% CO2 incubator. A 40 µL cell suspension was added to each well of a 384-well microplate. Using Echo, 40 nL of the compound at different concentrations were added to each well, followed by incubation in a 37°C, 5% CO2 incubator for 7-10 days. 40 µL of CTG solution (Promega, Cat No. G7573) was added to each well and incubated away from light in a 37°C, 5% CO2 incubator for 30 minutes. Luminescence was measured using an Envision multimode plate reader (Perkin Elmer, Catalog No. Envision 2104). The luminescence signal was proportional to the ATP content in the system, and the ATP content directly reflected the number of viable cells in the system.
ICso value calculation: [formula] • X: Log value of compound concentration • Y: Inhibition rate (%) Table 1: 2D Anti-proliferation Effects of Compounds on HTC116-MTAP del and Wild-type Colorectal Cancer HCT-116 Cell Lines.

MDR1 (P-gp) = assay: MDCK-MDR1 membrane permeability assay; type: in vitro ADME; conditions: dog; MDCK-MDR1, 1 µM, pH 7.4, 2 hours
Experimental: (§2) Evaluation of membrane permeability of the molecules of the present invention to predict their permeability for the brain.
(§3) Specifically: 1. Pre-incubate MDCK-MDR1 cells at a density of 1.56×10^6 cells/mL, inoculate them in a 96-well plate to culture at 37°C for 7 days; 2. Remove the MDCKII-MDR1 plate from the incubator, wash twice with pre-warmed HBSS (10 mM HEPES, pH 7.4), and incubate at 37°C for 30 minutes; 3. Dilute the stock solution of the test compound with DMSO to obtain a 0.2 mM solution, then further dilute it with HBSS (10 mM HEPES, pH 7.4) to prepare a 1 µM working solution. For the blank control group, dilute with DMSO to obtain a 0.2 mM solution, then further dilute with HBSS (10 mM HEPES, pH 7.4) to obtain a 1 µM working solution. The final concentration of DMSO in the culture system is 0.5%; 4. Measure the transport rate of the drug from the apical side to the basolateral side. Add 125 µL of the 1 µM test compound solution into the Transwell insert (apical chamber) and immediately transfer 50 µL of the sample (D0 sample) from the apical chamber to a new 96-well plate. Fill the receptor plate wells (basolateral chamber) with 235 µL HBSS (10 mM HEPES, pH 7.4) and incubate at 37°C for 2 hours; 5. At the end of the incubation, transfer 50 µL of the sample from both the donor side and the acceptor side into the wells of a new 96-well plate, then add four volumes of cold acetonitrile containing the appropriate internal standard (IS). Before the LC-MS/MS analysis, take 100 µL of the supernatant and mix it with an appropriate volume of ultrapure water. Papp = (VA×⌊drug⌋acceptor)/(Area×Time×⌊drug⌋initial,donor) [formula] wherein VA is the volume of the acceptor well (unit: mL), area is the membrane surface area (for Transwell-96 well permeable support, it is 0.143 cm^2), and time is the total transport time (in seconds). Efflux Ratio = Papp (B−A)/Papp (A−B) [formula]

MDR1 = assay: MDCK-MDR1 membrane permeability assay; type: in vitro ADME; conditions: dog, pH 7.4; MDCK-MDR1, Efflux Ratio = Papp (B-A)/Papp (A-B)
Experimental: as §2, §3

MDCK-MDR1 cells = assay: MDCK-MDR1 membrane permeability assay; type: in vitro ADME; conditions: MDCK-MDR1, Efflux Ratio = Papp (B-A)/Papp (A-B)
Experimental: as §2, §3

Caco-2 monolayer cells = assay: Caco-2 membrane permeability assay; type: in vitro ADME; conditions: Caco-2, Efflux Ratio = Papp (B-A)/Papp (A-B)
Experimental: (§4) Evaluation of membrane permeability of the molecules of the present invention. Samples will be analyzed using LC-MS to estimate the apparent permeability coefficient (Papp) of the compound in Caco-2 monolayer cells, wherein the pH of the apical chamber is 6.5, and the pH of the basolateral chamber is 7.4. The P-gp efflux transporter, BCRP, and MRP2 inhibitors (50 µM quinidine, 30 µM benzbromarone, and 20 µM sulfasalazine) can block the active efflux transport of the compound. The data will be used for calculating apparent permeability (Papp). Papp = (VA×⌊drug⌋acceptor)/(Area×Time×⌊drug⌋initial,donor) [formula] wherein, VA is the volume of the receptor well (unit: mL), area is the membrane surface area (for Transwell-96 well permeable support, it is 0.143 cm^2), and time is the total transport time (unit: seconds). Efflux Ratio = Papp (B−A)/Papp (A−B) [formula]

[2] = Caco-2 membrane permeability assay; type: in vitro ADME; conditions: human
Experimental: as §4

HCT116-MTAPdel = assay: 2D anti-proliferation assay (CTG luminescence), MTAP-deficient HCT116 cells; type: cell-based
Experimental: as §1

[3] = Liver microsomal stability, human; type: in vitro ADME; conditions: human liver microsomes 0.5 mg/mL, compound 1 µM, NADPH 1 mM, 60 minutes
Experimental: Microsomal stability experiment of the compound. The details are as follows: A microsomal stability test was conducted on the compounds of the present invention. The test compounds were co-incubated with liver microsomes from different species, with or without the addition of NADPH. In the test system, the final concentration of the test compound was 1 µM, the final concentration of NADPH was 1 mM, and the final concentration of liver microsomes was 0.5 mg/mL.

[4] = Caco-2, apical pH 6.5, basolateral pH 7.4

Cc1c(CO)c(N)nc2cc(F)c(C(=O)N(C)[C@@H]3COc4cc(C(F)(F)F)ccc43)cc12 [Compound A9a]
bioavailability [1]: 81%
AUC(0-t) ([1]; iv, 2 mg/kg): 19500 ng·h/mL
C0 ([1]; iv, 2 mg/kg): 4010 ng/mL
clearance ([1]; iv, 2 mg/kg): 1.7 mL/min/kg
half-life ([1]; iv, 2 mg/kg): 3.3 h
AUC(0-t) ([1]; po, 10 mg/kg): 74200 ng·h/mL
Cmax ([1]; po, 10 mg/kg): 5340 ng/mL
Tmax ([1]; po, 10 mg/kg): 2 h
half-life ([1]; po, 10 mg/kg): 5.9 h
IC50 (HCT116-MTAPwt): 2470 nM
Papp A→B at 2 h, 1 µM (MDR1 (P-gp)): 5.1 ×10⁻⁶ cm/s
Papp B→A at 2 h, 1 µM (MDR1 (P-gp)): 5.9 ×10⁻⁶ cm/s
efflux ratio at 2 h, 1 µM (MDR1): 1.2
Efflux (MDCK-MDR1 cells): 1.2
Efflux (Caco-2 monolayer cells): < 2
efflux ratio ([2]; Caco-2, Efflux Ratio = Papp (B-A)/Papp (A-B)): 1.6
Papp A→B [2, 4]: 6.9 ×10⁻⁶ cm/s
Papp B→A [2, 4]: 10.8 ×10⁻⁶ cm/s
IC50 (HCT116-MTAPdel; Homo sapiens, HCT-116, HCT116 MTAP-deficient cells, 7-10 days incubation, CTG, read-out: HCT116-MTAPdel/IC50/nM): 16 nM
HCT116 WT/MTAPdel Selectivity (HCT116-MTAPdel; ratio of IC50 HCT116 WT / MTAPdel): 130
CLint scaled at 1 µM [3]: 8.9 mL/min/kg
